According to patent publication US20240254129A1, “HETEROCYCLIC COMPOUNDS AND USES THEREOF” (Kumquat Biosciences Inc., priority 2021, published 2024):

Tests used:
K-Ras G12D mutant = target: T1, K-Ras G12D mutant (Homo sapiens, UniProt P01116, G12D); assay: Nucleotide exchange assay (SOS1, BODIPY FL GDP), mutant K-Ras; type: biochemical; conditions: compound marked *: general methodology of example 7 (nucleotide exchange); read-out: IC50 against mutant Kras
T1 construct: GST (N); made in house; host or cells: E. coli BL21 (DE3)
Description: (§1) This assay can be also used to assess a selective inhibition of a mutant Ras protein relative to a wildtype, or relative to a different mutant Ras protein. For example, 250 nM or 500 nM GDP-loaded K-Ras proteins (e.g., wildtype or a mutant thereof including those mentioned in Example 6), each was incubated with different concentrations of compounds (for example ˜60 μM, ˜20 μM, ˜6.7 μM, ˜2.2 μM, ˜0.7 µM, ˜0.2 μM subject compound). A control reaction without subject compound was also included. SOS1 (catalytic domain) protein was added to the K-Ras protein solution. The nucleotide exchange reaction was initiated by adding fluorescent labelled GDP (Guanosine 5′-Diphosphate, BODIPY™ FL 2′-(or-3′)—O—(N-(2-Aminoethyl) Urethane) to a final concentration of 0.36 μM. Fluorescence was measured every 30 s for 70 minutes at 490 nm/515 nm (excitation/emission) in a M1000Pro plate reader (Tecan). Data is exported and analyzed to calculate an IC50 using GraphPad Prism (GraphPad Software). Sample(s) was tested with or without a subject compound disclosed herein including compound(s) exemplified in Table 1 to assess compound's ability to inhibit K-Ras signaling or its IC50 against a given Ras protein (e.g., a given mutant K-Ras) of interest.

wildtype K-Ras = target: T2, wildtype K-Ras (Homo sapiens, UniProt P01116); assay: Nucleotide exchange assay (SOS1, BODIPY FL GDP), wildtype K-Ras; type: biochemical; conditions: compound marked *: general methodology of example 7 (nucleotide exchange); read-out: IC50 against wildtype Kras
T2 construct: GST (N); made in house; host or cells: E. coli BL21 (DE3)
Description: as §1

wildtype Kras / hSOS1 = target: T3, wildtype Kras / hSOS1 (Homo sapiens, UniProt P01116); assay: HTRF assay, wildtype Kras / SOS1 interaction; type: binding; conditions: compound nos. 401-703; read-out: IC50 against wildtype Kras
T3 construct: made in house; host or cells: E. coli BL21 (DE3)
Method in brief: (§2)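 Buffer ~5 mM HEPES pH 7.4, ~150 mM NaCl, ~1 mM DTT, 0.05% BSA, 0.0025% Igepal. Cpd in DMSO + Ras/donor mix + SOS1/acceptor mix; ≥10 min; HTRF 665/620 ratio → IC50.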

[1] = target: GST-tagged K-Ras mutant / His-tagged hSOS1 (Homo sapiens, UniProt P01116); assay: HTRF assay, K-Ras mutant / SOS1 interaction; type: binding; conditions: compound nos. 401-703; read-out: IC50 against mutant Kras
Method in brief: as §2

GST-tagged K-Ras mutant / His-tagged hSOS1, sequence (P01116 whole entry G12D, form open): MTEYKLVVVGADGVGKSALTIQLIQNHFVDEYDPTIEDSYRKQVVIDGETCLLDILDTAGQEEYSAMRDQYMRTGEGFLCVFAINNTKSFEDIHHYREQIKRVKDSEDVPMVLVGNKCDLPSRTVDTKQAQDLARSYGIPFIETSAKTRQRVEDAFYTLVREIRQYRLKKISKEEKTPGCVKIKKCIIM
T3 sequence (P01116 1-188 isoform P01116-2): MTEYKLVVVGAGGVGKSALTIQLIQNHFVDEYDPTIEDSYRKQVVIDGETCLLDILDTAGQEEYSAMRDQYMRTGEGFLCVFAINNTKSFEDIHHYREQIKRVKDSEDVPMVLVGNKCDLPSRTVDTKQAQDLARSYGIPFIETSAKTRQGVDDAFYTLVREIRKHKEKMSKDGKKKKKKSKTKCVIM
T2 sequence (P01116 1-188 isoform P01116-2): as above
T1 sequence (P01116 1-188 isoform P01116-2 G12D): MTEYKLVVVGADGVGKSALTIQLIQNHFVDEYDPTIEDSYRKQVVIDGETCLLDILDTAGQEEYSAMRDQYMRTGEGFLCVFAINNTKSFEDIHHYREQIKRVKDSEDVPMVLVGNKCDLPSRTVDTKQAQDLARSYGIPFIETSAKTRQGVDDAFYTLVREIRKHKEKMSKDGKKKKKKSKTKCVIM

| Structure (SMILES) | IC50 (K-Ras G12D mutant) [µM] | IC50 (wildtype K-Ras) [µM] | IC50 (wildtype Kras / hSOS1) [µM] | IC50 [1] [µM] |
| --- | --- | --- | --- | --- |
| CN1CCC[C@H]1COc1nc(N2CCCNCC2)c2cc(Cl)c(-c3cccc4sc(N)nc34)c(F)c2n1 [Compound 101, 4-(6-chloro-4-(1,4-diazepan-1-yl)-8-fluoro-2-(((S)-1-methylpyrrolidin-2-yl)methoxy)quinazolin-7-yl)benzo[d]thiazol-2-amine] | < 0.5 | > 0.5 |  |  |
| Nc1nc2c(-c3c(Cl)cc4c(N5CCC6CCC(C5)N6)nc(OC[C@@]56CCCN5C[C@H](F)C6)nc4c3F)ccc(F)c2s1 (stereo partly drawn) [Compound 684, 4-(4-(3,9-diazabicyclo-[4.2.1]nonan-3-yl)-6-chloro-8-fluoro-2-(((2R,7aS)-2-fluorotetrahydro-1H-pyrrol-izin-7a(5H)-yl)methoxy)-quinazolin-7-yl)-7-fluoro-benzo[d]thiazol-2-amine] |  |  | > 0.5 | < 0.5 |
| Nc1nc2c(-c3c(Cl)cc4c(N5CC6CCCC5CN6)nc(OC[C@@]56CCCN5C[C@H](F)C6)nc4c3F)ccc(F)c2s1 (stereo partly drawn) [Compound 685, 4-(4-(6,8-diazabicyclo-[3.2.2]nonan-6-yl)-6-chloro-8-fluoro-2-(((2R,7aS)-2-fluorotetrahydro-1H-pyrrol-izin-7a(5H)-yl)methoxy)-quinazolin-7-yl)-7-fluoro-benzo[d]thiazol-2-amine] |  |  | > 0.5 | < 0.5 |
| Nc1nc2c(-c3c(Cl)cc4c(N5CC6CC5CCN6)nc(OC[C@@]56CCCN5C[C@H](F)C6)nc4c3F)ccc(F)c2s1 (stereo partly drawn) [Compound 686, 4-(4-(2,6-diazabicyclo-[3.2.1]octan-6-yl)-6-chloro-8-fluoro-2-(((2R,7aS)-2-fluorotetrahydro-1H-pyrrol-izin-7a(5H)-yl)methoxy)-quinazolin-7-yl)-7-fluoro-benzo[d]thiazol-2-amine] |  |  | > 0.5 | < 0.5 |
| Cc1ccnc(C(C)C)c1-n1c(=O)nc(N2CC3CCC(C2)N3)c2cc(F)c(-c3c(O)cccc3F)nc21 [Compound 687, 4-(3,8-diazabicyclo[3.2.1]-octan-3-yl)-6-fluoro-7-(2-fluoro-6-hydroxyphenyl)-1-(2-isopropyl-4-methylpyr-idin-3-yl)pyrido[2,3-d]pyr-imidin-2(1H)-one] |  |  | > 0.5 | > 0.5 |
| Fc1ccc(-c2c(Cl)cc3c(N4CC5CCC(C4)N5)nc(OC[C@@]45CCCN4C[C@H](F)C5)nc3c2F)c2c1CCCC2 [Compound 689, 4-(3,8-diazabicyclo[3.2.1]-octan-3-yl)-6-chloro-8-fluoro-7-(4-fluoro-5,6,7,8-tetrahydronaphthalen-1-yl)-2-(((2R,7aS)-2-fluorotetra-hydro-1H-pyrrolizin-7a(5H)-yl)methoxy)quinazoline] |  |  | > 0.5 | > 0.5 |
| Nc1nc2c(-c3c(Cl)cc4c(N5CC6CCC(CC6)C5)nc(OC[C@@]56CCCN5C[C@H](F)C6)nc4c3F)ccc(F)c2s1 [Compound 690, 4-(4-(3-azabicyclo[3.2.2]-nonan-3-yl)-6-chloro-8-fluoro-2-(((2R,7aS)-2-fluorotetrahydro-1H-pyrrol-izin-7a(5H)-yl)methoxy)-quinazolin-7-yl)-7-fluoro-benzo[d]thiazol-2-amine] |  |  | > 0.5 | < 0.5 |
| N#Cc1ccc2ccccc2c1-c1ccc2c(N3CC4CCC(C3)N4)nc(OC[C@@]34CCCN3C[C@H](F)C4)nc2c1F [Compound 691, 1-(4-(3,8-diazabicyclo-[3.2.1]octan-3-yl)-8-fluoro-2-(((2R,7aS)-2-fluorotetra-hydro-1H-pyrrolizin-7a(5H)-yl)methoxy)quinazolin-7-yl)-2-naphthonitrile] |  |  | > 0.5 | > 0.5 |
| CN(C)CC1(COc2nc(N3CC4CCC(C3)N4)c3cc(Cl)c(-c4cccc5oc(N)nc45)c(F)c3n2)CC1 [Compound 692, 4-(4-(3,8-diazabicyclo-[3.2.1]-octan-3-yl)-6-chloro-2-((1-((dimethylamino)-methyl)cyclopropyl)meth-oxy)-8-fluoroquinazolin-7-yl)benzo[d]oxazol-2-amine] |  |  | > 0.5 | < 0.5 |
| O=C(c1cc(O)cc2ccccc12)N1CCc2nc(OCC34CCCN3CCC4)nc(N3CC4CCC(C3)N4)c2CC1 [Compound 694, (4-(3,8-diazabicyclo[3.2.1]-octan-3-yl)-2-((tetrahydro-1H-pyrrolizin-7a(5H)-yl)-methoxy)-5,6,8,9-tetrahydro-7H-pyrimido[4,5-d]azepin-7-yl)(3-hydroxynaphthalen-1-yl)methanone] |  |  | > 0.5 | > 0.5 |
| Nc1c(-c2c(Cl)cc3c(N4CC5CCC(C4)N5)nc(OCC45CCCN4CCC5)nc3c2F)cccc1C1CC1 [Compound 695, 2-(4-(3,8-diazabicyclo-[3.2.1]octan-3-yl)-6-chloro-8-fluoro-2-((tetrahydro-1H-pyrrolizin-7a(5H)-yl)meth-oxy)quinazolin-7-yl)-6-cyclopropylaniline] |  |  | > 0.5 | > 0.5 |
| CN1CCCC1CCNc1nc(N2CC3CCC(C2)N3)c2ccc(-c3ccc(F)c4sc(N)nc34)nc2n1 (stereo not drawn) [Compound 697, 4-(4-(3,8-diazabicyclo-[3.2.1]octan-3-yl)-2-((2-(1-methylpyrrolidin-2-yl)-ethyl)amino)pyrido[2,3-d]-pyrimidin-7-yl)-7-fluoro-benzo[d]thiazol-2-amine] |  |  | > 0.5 | > 0.5 |
| CN1CCC[C@H]1COc1nc(N2CCCCC(C(N)=O)C2)c2cc(Cl)c(-c3cccc4sc(N)nc34)c(F)c2n1 (stereo partly drawn) [Compound 700, 1-(7-(2-aminobenzo[d]-thiazol-4-yl)-6-chloro-8-fluoro-2-(((S)-1-methyl-pyrrolidin-2-yl)methoxy)-quinazolin-4-yl)azepane-3-carboxamide] |  |  | > 0.5 | < 0.5 |
| CN(C)CC1(COc2nc(N3C[C@H]4CC[C@@H](C3)N4)c3cc(Cl)c(-c4cc(O)cc5ccccc45)c(F)c3n2)CC1 [Compound 701, 4-(4-((1R,5S)-3,8-diazabicyclo[3.2.1]octan-3-yl)-6-chloro-2-((1-((dimethylamino)methyl)cyclopropyl)methoxy)-8-fluoroquinazolin-7-yl)naphthalen-2-ol] |  |  | > 0.5 | < 0.5 |
| Cc1ccc2[nH]nc(N)c2c1-c1ccc2c(N3CC4CCC(C3)N4)nc(OC[C@@]34CCCN3C[C@H](F)C4)nc2c1F [Compound 703, 4-(4-(3,8-diazabicyclo-[3.2.1]octan-3-yl)-8-fluoro-2-(((2R,7aS)-2-fluorotetra-hydro-1H-pyrrolizin-7a(5H)-yl)methoxy)quinazolin-7-yl)-5-methyl-1H-indazol-3-amine] |  |  | > 0.5 | > 0.5 |
